Results: BindingDB's records for patent US9694016 (Novartis AG, 2017)
pIC50: −log10 of the molar value.

biological target: RAF proto-oncogene serine/threonine-protein kinase [Y340E,Y341E] (Human, UniProt P04049, Y340E/Y341E); test: Raf Activity Assay; conditions: pH 7.5; 25 °C
Sequence (P04049 whole entry Y340E/Y341E): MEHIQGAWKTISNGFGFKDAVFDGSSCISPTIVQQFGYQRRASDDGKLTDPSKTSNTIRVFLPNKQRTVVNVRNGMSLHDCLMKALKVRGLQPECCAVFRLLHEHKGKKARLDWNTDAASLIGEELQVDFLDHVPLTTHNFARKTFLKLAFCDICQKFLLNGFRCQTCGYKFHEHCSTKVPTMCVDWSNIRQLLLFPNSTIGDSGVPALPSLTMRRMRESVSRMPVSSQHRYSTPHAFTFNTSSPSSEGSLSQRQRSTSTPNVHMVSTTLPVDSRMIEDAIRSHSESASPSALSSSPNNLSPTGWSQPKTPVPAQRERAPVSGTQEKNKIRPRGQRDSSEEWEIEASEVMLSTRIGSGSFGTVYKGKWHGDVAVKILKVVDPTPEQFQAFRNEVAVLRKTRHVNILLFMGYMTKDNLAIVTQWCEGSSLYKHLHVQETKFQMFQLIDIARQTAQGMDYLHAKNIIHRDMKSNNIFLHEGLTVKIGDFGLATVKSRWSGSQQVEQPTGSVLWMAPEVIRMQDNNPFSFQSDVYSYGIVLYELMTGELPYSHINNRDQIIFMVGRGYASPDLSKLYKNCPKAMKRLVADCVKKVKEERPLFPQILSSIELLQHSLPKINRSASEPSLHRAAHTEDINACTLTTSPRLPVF
Procedure: The plate was incubated for 60 minutes at room temperature. The Raf kinase activity reaction was started by the addition of 5 mL per well of 2xATP diluted in assay buffer. […] The additions were carried out under dark conditions to protect the detection beads from light. A lid was placed on top of the plate and incubated for 1 hour at room temperature, then the luminescence was read on a PerkinElmer Envision instrument.

Question: How did the pIC50 turn out when `Cc1ncc(NC(=O)c2ccnc(C(C)(C)C#N)c2)cc1-c1cnc(OC(F)F)c(N2CCOCC2)c1` [US9694016, 225] was run?
Answer: 8.41

Question: How did the pIC50 turn out when `Cc1ncc(NC(=O)c2ccnc(C(C)(F)F)c2)cc1-c1cnc(C#N)c(N2CCOCC2)c1` [US9694016, 250] was run?
Answer: 9.10

Question: How did the pIC50 turn out when `Cc1ncc(NC(=O)c2cc(CN(C)C)cc(C(F)(F)F)c2)cc1-c1cc(N2CCOCC2)c(=O)n(C)c1` [US9694016, 401] was run?
Answer: 7.92

Question: How did the pIC50 turn out when `Cn1cc(-c2cc(NC(=O)c3ccnc(C(C)(F)F)c3)ccc2C#N)cc(N2CCOCC2)c1=O` [US9694016, 416] was run?
Answer: 6.70

Question: `Cc1ncc(NC(=O)c2ccnc(C(C)(F)F)c2)cc1-c1cc(N2CCOC[C@@H]2C)n(C)c(=O)c1` [US9694016, 526] was tested. Which pIC50 did it give?
Answer: 8.03

Question: How did the pIC50 turn out when `CCOc1nnc(-c2cc(NC(=O)c3ccnc(C(F)(F)F)c3)ccc2C)cc1N1CCOCC1` [US9694016, 566] was run?
Answer: 9.70

Question: How did the pIC50 turn out when `COc1nnc(-c2cc(NC(=O)c3ccnc(C(C)(C)F)c3)cnc2C)cc1N1CCOCC1` [US9694016, 608] was run?
Answer: 8.70

Question: `CCOc1nnc(-c2cc(NC(=O)c3cccc(C(F)F)c3)cnc2C)cc1N1CCOCC1` [US9694016, 619] was tested. Which pIC50 did it give?
Answer: 9.30

Question: How did the pIC50 turn out when `Cc1ncc(NC(=O)c2cnnc(C(C)(C)C#N)c2)cc1-c1cc(N2CCOCC2)c(OC2CCOCC2)nn1` [US9694016, 635] was run?
Answer: 8.18

Question: With `Cc1ccc(NC(=O)c2ccnc(C3CC3)c2)cc1-c1cc(N2CCOCC2)c(=O)n(C)n1` [US9694016, 656] as the molecule, how does the pIC50 read?
Answer: 9.52

Question: With `CCNc1nc(-c2cc(NC(=O)c3cccc(S(C)(=O)=O)c3)ccc2C)cc(N2CCOCC2)n1` [US9694016, 704] as the molecule, how does the pIC50 read?
Answer: 10.10

Question: How did the pIC50 turn out when `CCNc1nc(-c2cc(NC(=O)c3ccnc(C(C)(F)F)c3)cnc2C)cc(N2CCOCC2)n1` [US9694016, 725] was run?
Answer: 8.92

Question: With `CCOc1nc(-c2cc(NC(=O)c3ccnc(C(C)C)c3)ccc2C)cc(N2CCOCC2)n1` [US9694016, 763] as the molecule, how does the pIC50 read?
Answer: 9.70

Question: How did the pIC50 turn out when `Cc1ccc(NC(=O)c2ccnc(C(C)(C)C#N)c2)cc1-c1cc(N2CCOCC2)nc(OC2CNC2)n1` [US9694016, 777] was run?
Answer: 10.10

Question: How did the pIC50 turn out when `CNC(=O)C1CN(c2cc(-c3cc(NC(=O)c4cccc(C(F)(F)F)c4)cnc3C)nn3ccnc23)CCO1` (stereo unspecified) [US9694016, 874] was run?
Answer: 8.47

Question: `Cc1ncc(NC(=O)c2ccnc(C3(C#N)CC3)c2)cc1-c1cnc(OC2CCOCC2)c(N2CCOCC2)c1` [US9694016, 940] was tested. Which pIC50 did it give?
Answer: 8.88
